Measurements as given in patent US10584128B2, “Bicyclic dihydropyrimidine-carboxamide derivatives as Rho-Kinase inhibitors” (CHIESI FARMACEUTICI S.p.A., priority 2016, dated 2020).

Assays:
Rho kinase 2 = Rho kinase 2 (Homo sapiens, UniProt O75116); assay: In vitro Rho kinase inhibitory activity assay (ADP-Glo kit, Myelin Basic Protein substrate); format: biochemical; details: 10 μM ATP, 25° C., read-out: ROCK2 inhibitory activity (Ki, range of activity)
Protocol: (§1) The effectiveness of compounds of the present invention to inhibit Rho kinase activity can be determined in a 10 μl assay containing 40 mM Tris pH7.5, 20 mM MgCl2 0.1 mg/ml BSA, 50 μM DTT and 2.5 μM peptide substrate (Myelin Basic Protein) using an ADP-Glo kit (Promega). Compounds were dissolved in DMSO such that the final concentration of DMSO was 1% in the assay. All reactions/incubations are performed at 25° C. Compound (2 ul) and either Rho kinase 1 or 2 (4 μl) were mixed and incubated for 30 mins. Reactions were initiated by addition of ATP (4 μl) such that the final concentration of ATP in the assay was 10 μM. After a 1 hour incubation 10 μl of ADP-Glo Reagent was added and after a further 45 minute incubation 20 ul of Kinase Detection Buffer was added and the mixture incubated for a further 30 minutes. The luminescent signal was measured on a luminometer. […] Compounds were tested in dose-response format and the inhibition of kinase activity was calculated at each concentration of compound. To determine the IC50 (concentration of compound required to inhibit 50% of the enzyme activity) data were fit to a plot of % inhibition vs Log10 compound concentration using a sigmoidal fit with a variable slope and fixing the maximum to 100% and the minimum to 0%. To determine the Ki values the Cheng-Prusoff equation was utilized (Ki=IC50/(1+[S]/Km).

Rho kinase 1 = Rho kinase 1 (Homo sapiens, UniProt Q13464); assay: as above; format: biochemical; details: 10 μM ATP, 25° C., read-out: ROCK1 inhibitory activity (Ki, range of activity)
Chain of Rho kinase 1 (Q13464 whole entry): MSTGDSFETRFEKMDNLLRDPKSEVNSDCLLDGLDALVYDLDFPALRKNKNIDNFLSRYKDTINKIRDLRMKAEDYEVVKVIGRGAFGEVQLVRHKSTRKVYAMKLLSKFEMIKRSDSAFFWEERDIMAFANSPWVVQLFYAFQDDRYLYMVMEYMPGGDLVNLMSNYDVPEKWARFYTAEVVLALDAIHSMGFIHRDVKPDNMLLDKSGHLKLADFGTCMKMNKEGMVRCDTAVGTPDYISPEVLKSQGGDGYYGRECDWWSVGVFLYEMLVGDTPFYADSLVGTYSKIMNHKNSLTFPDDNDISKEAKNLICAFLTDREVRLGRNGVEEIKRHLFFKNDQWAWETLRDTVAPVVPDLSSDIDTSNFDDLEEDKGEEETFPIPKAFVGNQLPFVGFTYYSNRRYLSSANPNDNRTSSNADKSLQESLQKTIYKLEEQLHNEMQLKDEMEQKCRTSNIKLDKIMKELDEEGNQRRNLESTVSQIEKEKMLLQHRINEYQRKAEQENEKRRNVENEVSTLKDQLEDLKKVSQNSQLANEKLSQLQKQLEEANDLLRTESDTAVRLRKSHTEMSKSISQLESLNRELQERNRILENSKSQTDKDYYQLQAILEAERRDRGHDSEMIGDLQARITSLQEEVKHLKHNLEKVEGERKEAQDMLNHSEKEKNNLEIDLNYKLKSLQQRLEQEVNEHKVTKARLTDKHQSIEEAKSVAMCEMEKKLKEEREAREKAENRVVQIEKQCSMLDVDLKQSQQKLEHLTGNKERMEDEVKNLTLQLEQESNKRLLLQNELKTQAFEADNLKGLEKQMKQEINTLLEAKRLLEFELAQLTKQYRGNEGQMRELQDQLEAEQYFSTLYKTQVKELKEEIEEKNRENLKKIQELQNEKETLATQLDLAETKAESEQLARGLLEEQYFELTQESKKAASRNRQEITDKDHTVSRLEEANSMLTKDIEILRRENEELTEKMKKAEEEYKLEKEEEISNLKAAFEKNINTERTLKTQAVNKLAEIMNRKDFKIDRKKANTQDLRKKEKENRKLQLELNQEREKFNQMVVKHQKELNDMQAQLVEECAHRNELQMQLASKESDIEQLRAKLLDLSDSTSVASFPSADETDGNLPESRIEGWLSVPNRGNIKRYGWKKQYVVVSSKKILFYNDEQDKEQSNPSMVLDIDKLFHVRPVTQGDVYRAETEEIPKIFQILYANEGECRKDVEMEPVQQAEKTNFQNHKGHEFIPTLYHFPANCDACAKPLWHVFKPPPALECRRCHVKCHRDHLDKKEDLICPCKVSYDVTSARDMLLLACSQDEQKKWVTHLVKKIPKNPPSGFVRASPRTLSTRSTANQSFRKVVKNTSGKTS
Protocol: as §1

Chain of Rho kinase 2 (O75116 whole entry): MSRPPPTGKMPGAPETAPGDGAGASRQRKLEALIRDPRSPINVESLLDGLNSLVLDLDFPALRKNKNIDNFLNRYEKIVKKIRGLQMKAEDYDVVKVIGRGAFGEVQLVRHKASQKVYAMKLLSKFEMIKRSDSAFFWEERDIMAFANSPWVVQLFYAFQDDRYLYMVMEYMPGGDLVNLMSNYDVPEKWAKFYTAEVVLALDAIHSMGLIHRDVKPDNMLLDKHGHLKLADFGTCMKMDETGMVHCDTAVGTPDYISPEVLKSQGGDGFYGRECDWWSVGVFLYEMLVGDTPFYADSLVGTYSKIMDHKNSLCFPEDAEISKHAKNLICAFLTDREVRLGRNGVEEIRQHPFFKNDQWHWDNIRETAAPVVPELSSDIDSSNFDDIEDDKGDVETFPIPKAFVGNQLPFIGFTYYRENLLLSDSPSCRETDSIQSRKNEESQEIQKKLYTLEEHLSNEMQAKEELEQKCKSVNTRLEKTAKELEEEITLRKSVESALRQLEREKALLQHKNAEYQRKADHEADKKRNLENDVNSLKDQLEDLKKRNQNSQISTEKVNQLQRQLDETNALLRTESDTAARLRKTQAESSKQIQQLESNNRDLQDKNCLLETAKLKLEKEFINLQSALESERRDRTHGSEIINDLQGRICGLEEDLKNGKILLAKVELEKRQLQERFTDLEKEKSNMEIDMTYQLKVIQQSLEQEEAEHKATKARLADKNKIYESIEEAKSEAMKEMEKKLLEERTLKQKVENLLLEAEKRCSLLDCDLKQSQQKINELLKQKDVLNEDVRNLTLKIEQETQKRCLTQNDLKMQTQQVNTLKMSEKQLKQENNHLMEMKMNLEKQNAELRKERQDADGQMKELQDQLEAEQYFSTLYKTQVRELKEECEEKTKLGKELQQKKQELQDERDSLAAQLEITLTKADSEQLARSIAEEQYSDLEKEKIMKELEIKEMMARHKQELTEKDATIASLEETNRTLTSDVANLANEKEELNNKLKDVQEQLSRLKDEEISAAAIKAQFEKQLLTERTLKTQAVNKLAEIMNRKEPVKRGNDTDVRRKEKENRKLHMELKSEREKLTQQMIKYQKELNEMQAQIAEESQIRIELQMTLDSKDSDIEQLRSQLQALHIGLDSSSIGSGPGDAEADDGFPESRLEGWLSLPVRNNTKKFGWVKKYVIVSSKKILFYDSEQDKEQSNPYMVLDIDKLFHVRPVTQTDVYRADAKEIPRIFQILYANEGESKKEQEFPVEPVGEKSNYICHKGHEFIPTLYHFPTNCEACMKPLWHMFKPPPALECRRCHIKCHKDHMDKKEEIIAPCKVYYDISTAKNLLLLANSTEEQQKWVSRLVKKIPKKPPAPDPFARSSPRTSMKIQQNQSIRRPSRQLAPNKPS

SMILES | Ki (Rho kinase 2) | Ki (Rho kinase 1)
CCOC(=O)c1cc2n(n1)C(c1ccc(C(F)(F)F)cc1)C(C(=O)Nc1ccc3cnccc3c1)=C(C)N2 (centres unmarked) [Example 1, ethyl 6-(isoquinolin-6-ylcarbamoyl)-5-methyl-7-(4-(trifluoromethyl)phenyl)-4,7-dihydropyrazolo[1,5-a]pyrimidine-2-carboxylate] | < 50 nM | < 50 nM
CC1=C(C(=O)Nc2ccc3cnccc3c2)C(c2ccc(C)c(F)c2F)n2nc(CN(C)C)cc2N1 (centres unmarked) [Example 121, 7-(2,3-difluoro-4-methylphenyl)-2-((dimethylamino)methyl)-N-(isoquinolin-6-yl)-5-methyl-4,7-dihydropyrazolo[1,5-a]pyrimidine-6-carboxamide] | < 50 nM | < 50 nM
CC1=C(C(=O)Nc2cc3cn[nH]c3cc2F)C(c2ccc(C(F)(F)F)c(F)c2)n2nnnc2N1 (single isomer, unassigned) [Example 40A, N-(6-fluoro-1H-indazol-5-yl)-7-(3-fluoro-4-(trifluoromethyl)phenyl)-5-methyl-4,7-dihydrotetrazolo[1,5-a]pyrimidine-6-carboxamide] | < 50 nM | < 50 nM
CC1=C(C(=O)Nc2ccc3[nH]ncc3c2)C(c2ccc(F)cc2)n2nc(C)cc2N1 (centres unmarked) [Example 28, 7-(4-fluorophenyl)-N-(1H-indazol-5-yl)-2,5-dimethyl-4,7-dihydropyrazolo[1,5-a]pyrimidine-6-carboxamide] | < 50 nM | < 50 nM
CC1=C(C(=O)Nc2ccc3cnccc3c2)C(c2ccc(C(F)(F)F)c(F)c2)n2nc(C(=O)NCCN(C)C)cc2N1 (centres unmarked) [Example 79, N2-(2-(dimethylamino)ethyl)-7-(3-fluoro-4-(trifluoromethyl)phenyl)-N6-(isoquinolin-6-yl)-5-methyl-4,7-dihydropyrazolo[1,5-a]pyrimidine-2,6-dicarboxamide] | < 50 nM | < 50 nM
CC1=C(C(=O)Nc2ccc3[nH]ncc3c2)C(c2ccc(F)cc2)n2nc(C(=O)N3CCOCC3)cc2N1 (centres unmarked) [Example 90, 7-(4-fluorophenyl)-N-(1H-indazol-5-yl)-5-methyl-2-(morpholine-4-carbonyl)-4,7-dihydropyrazolo[1,5-a]pyrimidine-6-carboxamide] | < 50 nM | < 50 nM
CC1=C(C(=O)Nc2ccc3cnccc3c2)C(c2ccc(C(F)(F)F)c(F)c2)n2nc(CO)cc2N1 (single isomer, unassigned) [Example 65B, 7-(3-fluoro-4-(trifluoromethyl)phenyl)-2-(hydroxymethyl)-N-(isoquinolin-6-yl)-5-methyl-4,7-dihydropyrazolo[1,5-a]pyrimidine-6-carboxamide] | < 50 nM | < 50 nM
CC1=C(C(=O)Nc2ccc3cnccc3c2)C(C2Cc3ccccc3C2)n2nc(CO)cc2N1 (single isomer, unassigned) [Example 60A, 7-(2,3-dihydro-1H-inden-2-yl)-2-(hydroxymethyl)-N-(isoquinolin-6-yl)-5-methyl-4,7-dihydropyrazolo[1,5-a]pyrimidine-6-carboxamide] | < 50 nM | < 50 nM
CCOC(=O)c1cc2n(n1)C(c1ccc(C(F)(F)F)cc1)C(C(=O)Nc1ccc3[nH]ncc3c1)=C(C)N2 (centres unmarked) [Example 2, ethyl 6-((1H-indazol-5-yl)carbamoyl)-5-methyl-7-(4-(trifluoromethyl)phenyl)-4,7-dihydropyrazolo[1,5-a]pyrimidine-2-carboxylate] | < 50 nM | < 50 nM
CC1=C(C(=O)Nc2ccc3cnccc3c2)C(c2ccc(C(F)(F)F)c(F)c2)n2nc(CN3CC(CN(C)C)C3)cc2N1 (centres unmarked) [Example 106, 2-((3-((dimethylamino)methyl)azetidin-1-yl)methyl)-7-(3-fluoro-4-(trifluoromethyl)phenyl)-N-(isoquinolin-6-yl)-5-methyl-4,7-dihydropyrazolo[1,5-a]pyrimidine-6-carboxamide] | < 50 nM | < 50 nM
CC1=C(C(=O)Nc2ccc3cnccc3c2)C(c2ccc(C(F)(F)F)c(F)c2)n2nc(N)cc2N1 (single isomer, unassigned) [130B] | < 50 nM | < 50 nM
CC1=C(C(=O)Nc2ccc3cnccc3c2)C(c2ccc(C(F)(F)F)c(F)c2)n2nc(C(=O)N(C)C3CCN(C)CC3)cc2N1 (centres unmarked) [Example 88, 7-(3-fluoro-4-(trifluoromethyl)phenyl)-N6-(isoquinolin-6-yl)-N2,5-dimethyl-N2-(1-methylpiperidin-4-yl)-4,7-dihydropyrazolo[1,5-a]pyrimidine-2,6-dicarboxamide] | < 50 nM | < 50 nM
CC1=C(C(=O)Nc2ccc3cnccc3c2)C(C2COc3ccccc3O2)n2nc(CO)cc2N1 (single isomer, unassigned) [Example 72D, 7-(2,3-dihydrobenzo[b][1,4]dioxin-2-yl)-2-(hydroxymethyl)-N-(isoquinolin-6-yl)-5-methyl-4,7-dihydropyrazolo[1,5-a]pyrimidine-6-carboxamide] | 50 to 500 nM | 50 to 500 nM
CCOC(=O)c1nn2c(c1C#N)NC(C)=C(C(=O)Nc1ccc3[nH]ncc3c1)C2c1ccc(C(F)(F)F)cc1 (centres unmarked) [Example 16, ethyl 6-((1H-indazol-5-yl)carbamoyl)-3-cyano-5-methyl-7-(4-(trifluoromethyl)phenyl)-4,7-dihydropyrazolo[1,5-a]pyrimidine-2-carboxylate] | < 50 nM | < 50 nM
CC1=C(C(=O)Nc2ccc3cnccc3c2)C(c2ccc(C(F)(F)F)c(F)c2)n2nc(C(=O)NCCN3CCN(C)CC3)cc2N1 (centres unmarked) [Example 81, 7-(3-fluoro-4-(trifluoromethyl)phenyl)-N6-(isoquinolin-6-yl)-5-methyl-N2-(2-(4-methylpiperazin-1-yl)ethyl)-4,7-dihydropyrazolo[1,5-a]pyrimidine-2,6-dicarboxamide] | < 50 nM | < 50 nM
CC1=C(C(=O)Nc2ccc3cnccc3c2)C(c2ccc(C(F)(F)F)c(F)c2)n2nc(C(=O)NCCC(=O)N3CCCC3)cc2N1 (centres unmarked) [Example 127, 7-(3-fluoro-4-(trifluoromethyl)phenyl)-N6-(isoquinolin-6-yl)-5-methyl-N2-(3-oxo-3-(pyrrolidin-1-yl)propyl)-4,7-dihydropyrazolo[1,5-a]pyrimidine-2,6-dicarboxamide] | < 50 nM | < 50 nM
CC1=C(C(=O)Nc2ccc3[nH]ncc3c2)C(c2ccc(C(F)(F)F)c(F)c2)n2nnnc2N1 (single isomer, unassigned) [Example 25A, 7-(3-fluoro-4-(trifluoromethyl)phenyl)-N-(1H-indazol-5-yl)-5-methyl-4,7-dihydrotetrazolo[1,5-a]pyrimidine-6-carboxamide] | < 50 nM | < 50 nM
CC1=C(C(=O)Nc2ccc3cnccc3c2)C(c2ccc3ccsc3c2)n2nc(CO)cc2N1 (centres unmarked) [Example 46, 7-(benzo[b]thiophen-6-yl)-2-(hydroxymethyl)-N-(isoquinolin-6-yl)-5-methyl-4,7-dihydropyrazolo[1,5-a]pyrimidine-6-carboxamide] | < 50 nM | < 50 nM
CC1=C(C(=O)Nc2ccc3cnccc3c2)C(c2ccc(C(F)(F)F)c(F)c2)n2nc(C(=O)NC3CC(F)(F)C3)cc2N1 (centres unmarked) [Example 128, N2-(3,3-difluorocyclobutyl)-7-(3-fluoro-4-(trifluoromethyl)phenyl)-N6-(isoquinolin-6-yl)-5-methyl-4,7-dihydropyrazolo[1,5-a]pyrimidine-2,6-dicarboxamide] | < 50 nM | < 50 nM
